# Assay results: patent US8299040B2, “Methods for treating cancer targeting transglutaminase” (Board of Regents, The University of Texas System, priority 2006, dated 2012)
# Legend:
# Type in all cases: cell-based, human
# [1] = test system: TG2; assay: TG2 transcript level in MDA-Panc28 cells (RT-PCR)
# Method: Cells were collected for isolation of total RNA. Total cellular RNA was isolated with Trizol reagent (Invitrogen/Life Technologies, Carlsbad, Calif., USA), and cDNA was obtained from 5 μg of total RNA using a Superscript II RT kit (Invitrogen/Life Technologies). Briefly, 5 μl of the total 20 μl of reverse-transcribed product was used for PCR in 1×PCR buffer containing 1.5 mM MgCl2, 250 μM dNTPs, 0.5 units of Taq polymerase (Invitrogen/Life Technologies), and 100 ng of TG2 primer (primer 1,5′-[…]-3′; primer II, 5′-[…] GAGCAGG-3′) or β-actin-specific primer (Sigma-Genosys, Houston, Tex., USA). Thirty cycles were used for PCR analysis. The reaction products were analyzed on a 2% agarose gel containing ethidium bromide, and cDNA synthesis was verified by detection of the β-actin transcript, which was used as an internal control.
# [2] = test system: MCF-7 cells; assay: LC3-II accumulation in TG2-negative MCF-7 cells; conditions: MCF-7 (TG2-negative), optimal conditions
# Method: (§1) (A) A panel of pancreatic cancer cell lines including MDA-Panc28, Capan-2, Bx-PC3, Panc1 and MIAPaCa cells were treated with Rottlerin (4 μM) for 48 h for the detection of LC3-II and TG2 expression by western blot. (B) MCF-7 cell line was also tested for LC3-II and TG2 expression by western blot. (C) Expression of TG2 in MDA-Panc28 cells was determined upon exposure to different treatments (D) Detection of autophagolysosomes; MDA-Panc28 cells were treated with either control siRNA, Rottlerin or TG2 siRNA for 48 h. Photomicrographs show morphological changes of the cells by phase contrast microscopy (left panels); acridine orange staining of the acidic vesicular organelles by fluorescent microscopy (center panels) and the localization LC3-II at autophagosomes in cells after transfection with GFP-LC3 plasmid (right panels). […]
# (§2) After treatment, the cells were collected and centrifuged, and whole-cell lysates were obtained using a lysis buffer. Total protein concentration was determined using a DC protein assay kit (Bio-Rad, Hercules, Calif., USA). […] Mouse anti-β-actin and donkey anti-mouse secondary antibody were purchased from Sigma Chemical (St. Louis, Mo., USA) so that β-actin expression could be monitored to ensure equal loading of proteins. […] The blots were visualized with a Fluor Chem 8900 imager and quantified by a densitometer using the Alpha Imager application program (Alpha Innotech). […]
# [3] = test system: mTOR; assay: mTOR pathway phosphorylation in MDA-Panc28 cells (western blot)
# Method: (A) Phosphorylated mTOR was detected after 48 h of treatment with various doses of rottlerin, cells were subjected to western blot analysis. Phosphorylation of mTOR was inhibited in a dose-dependent manner. (B) MDA-Panc28 cells were treated with a specific mTOR inhibitor, rapamycin (at either 20 nM or 100 nM), TG2 siRNA or left untreated.
# as §2, with “USA). Rottlerin and mTOR inhibitor (rapamycin) were purchased from Calbiochem (La Jolla, Calif., USA). Aliquots containing 30 μg of total protein from each sample were subjected to sodium dodecyl sulfate-polyacrylamide gel electrophoresis (SDS-PAGE) with a 4-20% gradient and electrotransferred to nitrocellulose membranes.” for “USA).”
# [4] = test system: TG2; assay: TG2 expression in pancreatic cancer cell lines (western blot); conditions: 4 μM for 48 h, all pancreatic cancer cell lines tested
# Method: as §1, §2
smiles,measurement,setting,value
CC(=O)c1c(O)c(C)c(O)c(Cc2c(O)c3c(c(C(=O)/C=C/c4ccccc4)c2O)OC(C)(C)C=C3)c1O [rottlerin],effect on TG2 expression at the level of transcription,[1],inhibitory effect
same,LC3-II accumulation,[2],failed to produce any increase in LC3-II accumulation
same,phosphorylated mTOR (p-mTOR),"[3]; MDA-Panc28, 48 h",downregulated phosphorylated mTOR (p-mTOR)
same,p-p70S6K,"[3]; MDA-Panc28, data not shown",downregulated
same,TG2 expression,[4],parallel decrease in TG2 expression
